Holding throughout (format): cell-based
The subject of assay [1] is S. aureus Smith. The assay is described as follows: MIC, agar dilution. The note with it: Staphylococcus aureus; S. aureus Smith; Mueller-Hinton agar pH 7.2; 32° C., 18 hr; 10^6 cells/ml; read-out: MIC. The method, then: (§1) Minimum inhibitory concentrations (MICs) of the present series of cephalosporins were determined against 32 strains of test organisms by two-fold serial agar dilution method in Mueller-Hinton agar. Geometric means of MICs were calculated against six groups of the test organisms which are classified as follows and summarized in Table 1.
(§2) In vivo antibacterial activity was determined against three bacterial infections (S. aureus Smith, E. coli Juhl and P. aeruginosa A9843A) by intramuscular administration to mice just after the bacterial challenge. PD50 values are summarized in Table 3 in comparsion with the MIC values against the corresponding organisms.
(§3) Medium; MuellerHinton agar (pH = 7.2)
(§4) Incubation temperature: 32° C., 18 hr
(§5) Inoculum size; 10^6 cells/ml
Background: In agar dilution the substance is mixed into plates at graded concentrations.

Assay [2] has as its system P. aeruginosa A9843A. In words: MIC, agar dilution. Particulars: Pseudomonas aeruginosa, A9843A, 18 h, pH 7.2. On the procedure:
as §1, §2, §3, §4, §5

Assay [3] concerns E. coli Juhl A15119. In words: MIC, agar dilution. Particulars: Escherichia coli, JUHLA15119; E. coli Juhl A15119; Mueller-Hinton agar pH 7.2; 32° C., 18 hr; 10^6 cells/ml; read-out: MIC. The method, then:
as §1, §2, §3, §4, §5

Assay [4] has as its system M. luteus 1001. In words: MIC, agar dilution. The note with it: Micrococcus luteus, Mueller-Hinton agar pH 7.2, 32° C., 18 hr, 10^6 cells/ml. The method, then: as §1, §3, §4, §5
Assay [5] concerns P. rettgeri IPM-14. The assay is described as follows: MIC, agar dilution. Particulars: Providencia rettgeri, IPM14, Mueller-Hinton agar pH 7.2, 32° C., 18 hr, 10^6 cells/ml. The method, then:
as §1, §3, §4, §5

For assay [6], the system named is X. maltophilia GN 12873. The assay is described as follows: MIC, agar dilution. Particulars: Stenotrophomonas maltophilia, GN12873, Mueller-Hinton agar pH 7.2, 32° C., 18 hr, 10^6 cells/ml. On the procedure: as §1, §3, §4, §5
Assay [7] has as its system P. mirabilis IFO-2849. In words: MIC, agar dilution. Particulars: Proteus mirabilis, IFO2849, Mueller-Hinton agar pH 7.2, 32° C., 18 hr, 10^6 cells/ml. On the procedure:
as §1, §3, §4, §5

The subject of assay [8] is P. aeruginosa IPM-9. In words: MIC, agar dilution. The note with it: Pseudomonas aeruginosa, IPM9, Mueller-Hinton agar pH 7.2, 32° C., 18 hr, 10^6 cells/ml. The method, then:
as §1, §3, §4, §5

The subject of assay [9] is P. cepacia No. 651. In words: MIC, agar dilution. The note with it: Burkholderia cepacia, Mueller-Hinton agar pH 7.2, 32° C., 18 hr, 10^6 cells/ml. On the procedure: as §1, §3, §4, §5
Assay [10] has as its system S. aureus 209P. The assay is described as follows: MIC, agar dilution. Particulars: Staphylococcus aureus; S. aureus 209P; Mueller-Hinton agar pH 7.2; 32° C., 18 hr; 10^6 cells/ml; read-out: MIC. On the procedure: as §1, §3, §4, §5
The test system of assay [11] is E. coli 255. In words: MIC, agar dilution. Particulars: Escherichia coli, Mueller-Hinton agar pH 7.2, 32° C., 18 hr, 10^6 cells/ml. On the procedure:
as §1, §3, §4, §5

Assay [12] concerns E. faecium A24817. The assay is described as follows: MIC, agar dilution. The note with it: Enterococcus faecium, Mueller-Hinton agar pH 7.2, 32° C., 18 hr, 10^6 cells/ml. The method, then:
as §1, §3, §4, §5

Assay [13] concerns P. aeruginosa A20599. In words: MIC, agar dilution. Particulars: Pseudomonas aeruginosa, Mueller-Hinton agar pH 7.2, 32° C., 18 hr, 10^6 cells/ml. On the procedure:
as §1, §3, §4, §5

Assay [14] has as its system C. terrigena IFO 12685. The assay is described as follows: MIC, agar dilution. Particulars: Mueller-Hinton agar pH 7.2, 32° C., 18 hr, 10^6 cells/ml. The method, then: as §1, §3, §4, §5
Assay [15] concerns S. marcescens IPM-16. In words: MIC, agar dilution. The note with it: Serratia marcescens, IPM16, Mueller-Hinton agar pH 7.2, 32° C., 18 hr, 10^6 cells/ml. On the procedure:
as §1, §3, §4, §5

For assay [16], the system named is S. epidermidis 11-1230. The assay is described as follows: MIC, agar dilution. Particulars: Staphylococcus epidermidis, 111230, Mueller-Hinton agar pH 7.2, 32° C., 18 hr, 10^6 cells/ml. The method, then: as §1, §3, §4, §5
In assay [17] the test system is S. marcescens IPM-15. The assay is described as follows: MIC, agar dilution. The note with it: Serratia marcescens, IPM15, Mueller-Hinton agar pH 7.2, 32° C., 18 hr, 10^6 cells/ml. On the procedure:
as §1, §3, §4, §5

The subject of assay [18] is K. pneumoniae PCI 602. In words: MIC, agar dilution. The note with it: Klebsiella pneumoniae, PCI602, Mueller-Hinton agar pH 7.2, 32° C., 18 hr, 10^6 cells/ml. The method, then: as §1, §3, §4, §5
The subject of assay [19] is P. vulgaris IPM-13. The assay is described as follows: MIC, agar dilution. Particulars: Proteus vulgaris, IPM13, Mueller-Hinton agar pH 7.2, 32° C., 18 hr, 10^6 cells/ml. The method, then:
as §1, §3, §4, §5

In assay [20] the test system is E. faecalis A9808. In words: MIC, agar dilution. The note with it: Enterococcus faecalis, Mueller-Hinton agar pH 7.2, 32° C., 18 hr, 10^6 cells/ml. On the procedure:
as §1, §3, §4, §5

Assay [21] has as its system P. aeruginosa IPM-8. The assay is described as follows: MIC, agar dilution. The note with it: Pseudomonas aeruginosa, IPM8, Mueller-Hinton agar pH 7.2, 32° C., 18 hr, 10^6 cells/ml. The method, then:
as §1, §3, §4, §5

Assay [22] relates to X. maltophilia No. 661. In words: MIC, agar dilution. The note with it: Stenotrophomonas maltophilia, Mueller-Hinton agar pH 7.2, 32° C., 18 hr, 10^6 cells/ml. On the procedure:
as §1, §3, §4, §5

Assay [23] deals with P. cepacia A21213. In words: MIC, agar dilution. Particulars: Burkholderia cepacia, Mueller-Hinton agar pH 7.2, 32° C., 18 hr, 10^6 cells/ml. The method, then: as §1, §3, §4, §5
Assay [24] deals with P. aeruginosa KKA 19. In words: MIC, agar dilution. The note with it: Pseudomonas aeruginosa, KKA19, Mueller-Hinton agar pH 7.2, 32° C., 18 hr, 10^6 cells/ml. The method, then: as §1, §3, §4, §5
The test system of assay [25] is B. subtilis PCI 219. In words: MIC, agar dilution. The note with it: Bacillus subtilis, PCI219, Mueller-Hinton agar pH 7.2, 32° C., 18 hr, 10^6 cells/ml. On the procedure: as §1, §3, §4, §5
Assay [26] relates to M. morgani 1510/9. The assay is described as follows: MIC, agar dilution. The note with it: Mueller-Hinton agar pH 7.2, 32° C., 18 hr, 10^6 cells/ml. The method, then: as §1, §3, §4, §5
Assay [27] has as its system S. aureus IPM-24 (MRSA). The assay is described as follows: MIC, agar dilution. Particulars: Staphylococcus aureus, Mueller-Hinton agar pH 7.2, 32° C., 18 hr, 10^6 cells/ml. The method, then: as §1, §3, §4, §5
Assay [28] relates to S. aureus 4-1015 (MRSA). The assay is described as follows: MIC, agar dilution. Particulars: Staphylococcus aureus, Mueller-Hinton agar pH 7.2, 32° C., 18 hr, 10^6 cells/ml. On the procedure: as §1, §3, §4, §5
Assay [29] deals with C. freundii GN 7391. In words: MIC, agar dilution. The note with it: Citrobacter freundii, GN7391, Mueller-Hinton agar pH 7.2, 32° C., 18 hr, 10^6 cells/ml. The method, then: as §1, §3, §4, §5
Assay [30] deals with M. morgani 1510. In words: MIC, agar dilution. The note with it: Mueller-Hinton agar pH 7.2, 32° C., 18 hr, 10^6 cells/ml. On the procedure: as §1, §3, §4, §5
Assay [31] has as its system E. cloacae IPM-12. In words: MIC, agar dilution. The note with it: Enterobacter cloacae, IPM12, Mueller-Hinton agar pH 7.2, 32° C., 18 hr, 10^6 cells/ml. The method, then:
as §1, §3, §4, §5

Assay [32] deals with Gp-Ia: Penicillin(PC)-sensitive S. aureus (5 strains). The assay is described as follows: MIC, two-fold serial agar dilution, Gp-Ia. Particulars: Staphylococcus aureus, Mueller-Hinton agar, read-out: Geometric mean of MIC. On the procedure: as §1
Gp-Ia Penicillin(PC)-sensitive S. aureus (5 strains).

The test system of assay [33] is Gp-Ib: Penicillin(PC)-resistant S. aureus (5). The assay is described as follows: MIC, two-fold serial agar dilution, Gp-Ib. Particulars: Staphylococcus aureus, 5 strains, Mueller-Hinton agar, read-out: Geometric mean of MIC. The method, then: as §1
Gp-Ib Penicillin(PC)-resistant S. aureus (5).

Assay [34] concerns Gn-II: M.morganii (1), Ent. cloacae (2) and Ser. marcescens (2). The assay is described as follows: MIC, two-fold serial agar dilution, Gn-II. Particulars: Gn-II, 5 strains; Mueller-Hinton agar; read-out: Geometric mean of MIC. The method, then: as §1
Gn-II M.morganii (1), Ent. cloacae (2) and Ser.

Assay [35] relates to Gn-Ib: Cephalothin(CET)-resistant E. coli (3) and Kl. pneumoniae (2). The assay is described as follows: MIC, two-fold serial agar dilution, Gn-Ib. Particulars: Escherichia coli, read-out: Geometric mean of MIC, Gn-Ib, 5 strains; Mueller-Hinton agar. The method, then:
as §1
Gn-Ib Cephalothin(CET)-resistant E. coli (3) and Kl.

Assay [36] has as its system Gn-Ia: Cephalothin(CET)-sensitive E. coli (2), Kl. pneumoniae (1) and Pr. mirabilis (2). In words: MIC, two-fold serial agar dilution, Gn-Ia. Particulars: 5 strains, Mueller-Hinton agar, read-out: Geometric mean of MIC. On the procedure: as §1
Gn-Ia Cephalothin(CET)-sensitive E. coli (2), Kl.
pneumoniae (1) and Pr. mirabilis (2).

The test system of assay [37] is Gn-III: Ps. aeruginosa (7). The assay is described as follows: MIC, two-fold serial agar dilution, Gn-III. The note with it: Pseudomonas aeruginosa, Gn-III, 7 strains; Mueller-Hinton agar; read-out: Geometric mean of MIC. The method, then:
as §1
Gn-III Ps. aeruginosa (7).

Converted amounts (≈) assume the structure as drawn.

Two compounds from patent US5126336A, “Antibiotic C-3 catechol-substituted cephalosporin compounds, compositions and method of use thereof” (Bristol-Myers Squibb Company, priority 1990, dated 1992) can be followed below.

Usually MIC stands for the smallest concentration in the dilution series that meets the test's criterion for growth inhibition. Regarding `Nc1nc(/C(=N/O)C(=O)NC2C(=O)N3C(C(=O)[O-])=C(/C=C/C[n+]4cc5cc(O)c(O)cc5cn4)CS[C@H]23)cs1` (stereo partly shown) [Ik, 7-[(Z)-2-(2-Aminothiazol-4-yl)-2-hydroxyimino-acetamido]-3-[(E)-3-(6,7-dihydroxyphthalazin-2-io)-1-propen--1-yl]-3-cephem-4-carboxylate], the MIC was 0.8 µg/mL (≈ 1.4 µM) in assay [1]; > 100 µg/mL in assay [2]; 0.4 µg/mL (≈ 0.702 µM) in assay [3]; 0.4 µg/mL (≈ 0.702 µM) in assay [4]; 1.6 µg/mL (≈ 2.81 µM) in [5]; > 100 µg/mL in assay [6]. Moreover, the MIC in assay [7] is 0.2 µg/mL (≈ 0.351 µM); in assay [8], > 100 µg/mL; in assay [9], 100 µg/mL (≈ 176 µM); in assay [10], 0.8 µg/mL (≈ 1.4 µM); in assay [11] it was 0.2 µg/mL (≈ 0.351 µM); in assay [12] it was 50 µg/mL (≈ 87.8 µM). The MIC in [13] was > 100 µg/mL; in assay [14], 0.8 µg/mL (≈ 1.4 µM); in assay [15], > 100 µg/mL; in [16] it was 1.6 µg/mL (≈ 2.81 µM); in [17], > 100 µg/mL; in [18] it was 0.05 µg/mL (≈ 0.0878 µM). Besides, the MIC in assay [19] is > 100 µg/mL; in assay [20], 6.3 µg/mL (≈ 11.1 µM); in [21] it was > 100 µg/mL; in [22], > 100 µg/mL; in [23] it was > 100 µg/mL; in [24], > 100 µg/mL. Besides, the MIC in assay [25] was 0.4 µg/mL (≈ 0.702 µM); in assay [26], 0.1 µg/mL (≈ 0.176 µM); in assay [27], 12.5 µg/mL (≈ 21.9 µM); in assay [28] it was 3.1 µg/mL (≈ 5.44 µM); in [29], > 100 µg/mL; in [30], 6.3 µg/mL (≈ 11.1 µM). Besides, the MIC in assay [31] is > 100 µg/mL.

In the case of `CC(C)(O/N=C(\C(=O)NC1C(=O)N2C(C(=O)[O-])=C(/C=C/C[N+](C)(C)CCc3ccc(O)c(O)c3)CS[C@H]12)c1csc(N)n1)C(=O)O` (stereo partly shown) [Iq, 7-[(Z)-2-(2-Aminothiazol-4-yl)-2-(1-carboxy-1-methylethoxy-imino)acetamido]-3-[(E)-3-(3,4-dihydroxyphenethyldimethyl-ammonio)-1-propen-1-yl]-3-cephem-4-carboxylate], the MIC came out at 13 µg/mL (≈ 19.3 µM) in [32]; 25 µg/mL (≈ 37.1 µM) in assay [33]; 0.8 µg/mL (≈ 1.19 µM) in [34]; 0.13 µg/mL (≈ 0.193 µM) in [35]; 0.17 µg/mL (≈ 0.252 µM) in [36]; 0.59 µg/mL (≈ 0.874 µM) in [37].
